Laboratory results published in article PMC2848180 (American journal of obstetrics and gynecology, 2010).
“And” between values parts separate entries of the source, which are not always exact repeats. Equal entries are not always repeated. Values belong to the molecule of their own block, whether it stands above or below them.

Experiments:
[1] = test system: placental ABC transporters (placental IOVs); format: in vitro ADME, human; conditions: for total ATP-dependent uptake by placental IOVs: 100 nM radiolabeled drug, 1 min, pool of 60 term placentas
[2] = test system: P-gp, BCRP, and MRP1; conditions: 100 nM drug, 1 μM KO143, placental IOVs, 1 min
[3] = biological target: MRP1 (Homo sapiens, UniProt P33527); conditions: placental IOVs
[4] = biological target: T1, P-gp (Homo sapiens, UniProt P08183); assay: Inhibition of [3H]-rosiglitazone uptake by placental IOVs by cold metformin; format: in vitro ADME
[5] = biological target: T1, P-gp; conditions: placental IOVs
[6] = biological target: T2, BCRP (Homo sapiens, UniProt Q9UNQ0); conditions: 100 nM drug, 25 nM KO143, placental IOVs, 1 min
T2 sequence (Q9UNQ0 1-655): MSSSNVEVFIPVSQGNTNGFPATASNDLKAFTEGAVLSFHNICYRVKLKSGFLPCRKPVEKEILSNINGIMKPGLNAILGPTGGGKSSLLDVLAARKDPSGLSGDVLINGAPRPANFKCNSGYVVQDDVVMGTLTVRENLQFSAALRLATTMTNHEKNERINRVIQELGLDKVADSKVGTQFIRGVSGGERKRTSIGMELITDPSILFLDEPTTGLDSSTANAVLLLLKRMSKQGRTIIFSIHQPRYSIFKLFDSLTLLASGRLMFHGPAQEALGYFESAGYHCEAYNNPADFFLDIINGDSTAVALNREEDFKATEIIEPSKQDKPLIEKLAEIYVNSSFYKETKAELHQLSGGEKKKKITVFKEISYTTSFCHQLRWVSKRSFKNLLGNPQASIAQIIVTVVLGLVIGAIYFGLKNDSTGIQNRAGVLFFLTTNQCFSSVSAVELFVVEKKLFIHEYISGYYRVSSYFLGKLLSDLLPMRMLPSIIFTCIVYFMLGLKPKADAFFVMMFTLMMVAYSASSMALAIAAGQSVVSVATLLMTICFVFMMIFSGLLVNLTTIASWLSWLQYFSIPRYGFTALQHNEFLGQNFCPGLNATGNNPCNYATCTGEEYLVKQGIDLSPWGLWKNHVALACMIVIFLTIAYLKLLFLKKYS

[7] = biological target: T1, P-gp; conditions: placental brush border membrane vesicles; cited from earlier work
[8] = 100 nM, ABC transporters examined

T1 sequence (P08183 whole entry): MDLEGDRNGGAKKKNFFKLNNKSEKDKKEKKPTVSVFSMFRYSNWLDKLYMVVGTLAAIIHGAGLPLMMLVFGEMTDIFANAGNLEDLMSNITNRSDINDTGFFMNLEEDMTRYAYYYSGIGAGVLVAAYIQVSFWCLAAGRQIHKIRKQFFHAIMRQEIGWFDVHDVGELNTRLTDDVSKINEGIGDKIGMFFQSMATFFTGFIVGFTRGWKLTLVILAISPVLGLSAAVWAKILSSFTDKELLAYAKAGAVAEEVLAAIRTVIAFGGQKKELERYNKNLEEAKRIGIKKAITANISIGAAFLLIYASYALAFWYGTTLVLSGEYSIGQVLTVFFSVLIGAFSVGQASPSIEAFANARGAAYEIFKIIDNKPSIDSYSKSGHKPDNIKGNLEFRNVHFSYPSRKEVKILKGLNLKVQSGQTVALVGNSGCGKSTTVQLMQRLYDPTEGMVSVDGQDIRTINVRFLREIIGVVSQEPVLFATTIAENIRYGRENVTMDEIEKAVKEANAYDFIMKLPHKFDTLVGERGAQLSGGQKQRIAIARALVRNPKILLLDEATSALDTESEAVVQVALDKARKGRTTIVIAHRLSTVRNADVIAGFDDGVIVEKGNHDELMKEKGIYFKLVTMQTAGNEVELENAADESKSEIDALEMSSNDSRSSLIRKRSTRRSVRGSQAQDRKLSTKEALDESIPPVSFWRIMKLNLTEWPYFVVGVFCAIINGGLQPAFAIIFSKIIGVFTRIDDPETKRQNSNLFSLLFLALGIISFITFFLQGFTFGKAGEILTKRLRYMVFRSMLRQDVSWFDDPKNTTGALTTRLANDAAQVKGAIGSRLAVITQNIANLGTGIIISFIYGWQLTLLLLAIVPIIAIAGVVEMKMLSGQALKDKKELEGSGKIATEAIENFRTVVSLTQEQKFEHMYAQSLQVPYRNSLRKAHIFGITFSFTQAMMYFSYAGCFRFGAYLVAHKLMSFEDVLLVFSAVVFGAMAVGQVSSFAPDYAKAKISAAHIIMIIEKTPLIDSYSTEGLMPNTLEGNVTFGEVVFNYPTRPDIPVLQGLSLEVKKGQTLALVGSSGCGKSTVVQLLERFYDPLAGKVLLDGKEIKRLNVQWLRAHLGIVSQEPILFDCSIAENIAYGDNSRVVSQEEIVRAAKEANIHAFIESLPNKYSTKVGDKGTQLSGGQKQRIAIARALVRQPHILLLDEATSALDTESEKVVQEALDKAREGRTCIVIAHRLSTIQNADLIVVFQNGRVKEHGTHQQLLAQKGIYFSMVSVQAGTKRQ
Sequence of MRP1 (P33527 whole entry): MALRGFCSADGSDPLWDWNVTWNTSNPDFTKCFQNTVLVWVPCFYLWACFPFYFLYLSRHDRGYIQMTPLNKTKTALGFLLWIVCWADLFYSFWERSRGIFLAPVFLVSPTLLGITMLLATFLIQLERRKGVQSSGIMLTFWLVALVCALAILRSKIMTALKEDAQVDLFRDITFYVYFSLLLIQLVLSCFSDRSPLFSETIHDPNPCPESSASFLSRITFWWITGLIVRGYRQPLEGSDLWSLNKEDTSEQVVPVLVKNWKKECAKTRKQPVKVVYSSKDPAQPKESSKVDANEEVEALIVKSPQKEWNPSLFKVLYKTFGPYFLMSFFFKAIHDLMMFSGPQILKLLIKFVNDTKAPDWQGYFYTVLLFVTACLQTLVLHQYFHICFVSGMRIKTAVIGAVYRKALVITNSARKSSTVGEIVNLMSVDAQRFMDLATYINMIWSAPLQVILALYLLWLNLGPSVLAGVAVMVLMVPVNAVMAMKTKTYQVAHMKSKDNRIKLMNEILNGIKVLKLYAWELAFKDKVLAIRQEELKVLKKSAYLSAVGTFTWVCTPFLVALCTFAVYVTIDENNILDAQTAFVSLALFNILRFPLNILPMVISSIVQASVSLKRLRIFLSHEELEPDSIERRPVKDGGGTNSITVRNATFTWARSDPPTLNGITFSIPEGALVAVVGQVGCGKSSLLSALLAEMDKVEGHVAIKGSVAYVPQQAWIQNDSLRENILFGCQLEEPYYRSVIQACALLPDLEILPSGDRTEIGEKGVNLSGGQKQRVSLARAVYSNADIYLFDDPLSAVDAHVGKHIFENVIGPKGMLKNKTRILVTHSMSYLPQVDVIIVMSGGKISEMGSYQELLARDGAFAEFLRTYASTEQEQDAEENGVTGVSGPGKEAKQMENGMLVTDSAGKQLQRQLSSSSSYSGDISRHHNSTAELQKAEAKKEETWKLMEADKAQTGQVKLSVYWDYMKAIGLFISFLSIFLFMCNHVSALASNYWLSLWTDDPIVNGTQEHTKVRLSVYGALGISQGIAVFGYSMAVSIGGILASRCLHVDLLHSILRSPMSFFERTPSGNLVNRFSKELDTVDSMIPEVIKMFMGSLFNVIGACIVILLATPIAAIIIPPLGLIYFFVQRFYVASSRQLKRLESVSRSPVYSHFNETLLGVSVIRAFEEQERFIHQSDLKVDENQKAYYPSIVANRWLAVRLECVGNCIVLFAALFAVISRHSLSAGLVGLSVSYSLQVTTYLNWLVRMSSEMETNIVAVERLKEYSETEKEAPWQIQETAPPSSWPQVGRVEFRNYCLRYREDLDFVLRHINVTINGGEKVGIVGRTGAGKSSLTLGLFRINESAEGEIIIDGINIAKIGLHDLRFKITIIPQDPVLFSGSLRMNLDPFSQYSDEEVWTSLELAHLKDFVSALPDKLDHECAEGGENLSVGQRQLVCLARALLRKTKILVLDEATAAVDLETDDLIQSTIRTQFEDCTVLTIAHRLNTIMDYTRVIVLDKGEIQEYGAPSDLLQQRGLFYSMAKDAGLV

- total ATP-dependent uptake by placental IOVs [1]: 1.2 ± 0.2 pmol/mg protein*min
SMILES: CN(CCOc1ccc(CC2SC(=O)NC2=O)cc1)c1ccccn1 (stereo not shown) [rosiglitazone]

- total ATP-dependent uptake by placental IOVs [1]: 3.2 ± 0.3 pmol/mg protein*min
- decrease of uptake on total inhibition of P-gp, BCRP, and MRP1 using 1 μM KO143 [2]: 78 ± 4%
- apparent Kt of ATP-dependent transport by MRP1 [3]: 358 ± 195 nM
SMILES: COc1ccc(Cl)cc1C(=O)NCCc1ccc(S(=O)(=O)NC(=O)NC2CCCCC2)cc1 [glyburide]

- total ATP-dependent uptake by placental IOVs [1]: 35 pmol/mg protein*min
- fold greater total transport than glyburide [1, 8]: 10 fold
- fold greater total transport than rosiglitazone [1, 8]: 30 fold
- decrease of uptake on total inhibition of P-gp, BCRP, and MRP1 using 1 μM KO143 [2]: 89 ± 6%
- decrease of uptake on inhibition of MRP1 by indomethacin (transport by MRP1) ([3]; 100 nM drug, 100 μM indomethacin, 1 min): no effect
- IC50 [4]: ~0.6 µM
- inhibition at 1 min ([4]; human, placental inside-out vesicles (IOVs), probe [3H]-rosiglitazone, 100 nM): 69 ± 6%
- decrease of uptake on inhibition of P-gp by verapamil (transport by P-gp) ([5]; 100 nM drug, 600 μM verapamil, 1 min): 58 ± 20% and 58 ± 10%
- apparent Kt of ATP-dependent transport by P-gp [5]: 100 ± 85 nM
- decrease of uptake on inhibition of BCRP by 25 nM KO143 (transport by BCRP) [6]: 25 ± 14% and 25 ± 8%
SMILES: CN(C)C(=N)N=C(N)N [metformin]

SMILES: CC(=O)O[C@H]1C(=O)[C@@]2(C)[C@H]([C@H](OC(=O)c3ccccc3)[C@]3(O)C[C@H](OC(=O)[C@H](O)[C@@H](NC(=O)c4ccccc4)c4ccccc4)C(C)=C1C3(C)C)[C@]1(OC(C)=O)CO[C@@H]1C[C@@H]2O [paclitaxel]
- Kt of P-gp-mediated transport [7]: 66 ± 38 nM
- Vmax of P-gp-mediated transport [7]: 20 ± 3 pmol/mg protein*min
